According to PMC10046946, “Novel Phthalic-Based Anticancer Tyrosine Kinase Inhibitors: Design, Synthesis and Biological Activity” (Current Issues in Molecular Biology, 2023):

Tests used:
[1] = system: K562 (chronic myelogenous leukemia); assay: MTT cell proliferation assay, K562; format: cell-based; details: Homo sapiens, K562, 72 h of exposition, read-out: Anti-proliferative activity IC50, K562
Experimental: (§1) Tests to determine the effects of the synthesized compounds on cell viability and the half-maximal inhibitory concentration (IC50) were performed using the MTT assay, as described in our prior work.
(§2) The target compounds 5, 6, 8–12, 14, 15, 17–22 and 24–26 were tested for antiproliferative activity against six cancer cell lines: K562 (chronic myelogenous leukemia), HL-60 (promyelocytic leukemia), MCF-7 (breast adenocarcinoma), HepG2 (human liver cancer), A549 (lung carcinoma) and OKP-GS (renal cell carcinoma). The RPMI 1788 cells (B lymphocyte, human) were used as a control to evaluate the system toxicity of the studied compounds to normal cells. Sorafenib, nilotinib and lapatinib were utilized as reference standards for comparison.

[2] = system: RPMI 1788 cells (B lymphocyte, human); assay: MTT cell proliferation assay, normal RPMI 1788 cells; format: cell-based; details: normal human lymphoblastoid cells RPMI 1788, 72 h of exposition, read-out: Anti-proliferative activity IC50, RPMI 1788
Experimental: as §1, §2

A549 (lung carcinoma) = assay: MTT cell proliferation assay, A549; format: cell-based; details: Homo sapiens, A549, 72 h of exposition, read-out: Anti-proliferative activity IC50, A549
Experimental: as §1, §2

K562 cells [3] = assay: Annexin V-FITC/PI apoptosis assay; format: cell-based; details: 48 h
Experimental: K562 tumor cells were plated on a 6-well plate at a density of 400,000 per well. Test compounds 5, 14 and 15 were added at concentrations of 1, 5 and 10 μM in duplicate for 48 h. The methodology and analysis of the obtained data were performed as described in our prior work.
The effects of compounds 5, 14 and 15 on cell apoptosis were examined using the Annexin V-FITC Kit (Beckman Coulter, Brea, CA, USA) according to the protocols provided. The Annexin V-FITC Kit is an apoptosis detection kit based on the binding properties of annexin V to phosphatidylserine (PS) and on the DNA intercalating capability of propidium iodide (PI). K562 cells were treated with compound 5, 14 and 15 at 1, 5 and 10 μM for 48 h, after which annexin V/PI binding was measured by flow cytometry.

[4] = system: MCF-7 (breast adenocarcinoma); assay: MTT cell proliferation assay, MCF-7; format: cell-based; details: Homo sapiens, MCF7, MCF-7, 72 h of exposition, read-out: Anti-proliferative activity IC50, MCF-7
Experimental: as §1, §2

K562 cell line = assay: ROS determination (DCFH-DA, flow cytometry); format: cell-based; details: 48 h
Experimental: The redox status was assessed using the K562 cell line. […] Then, the cells were washed to remove the 2′,7′-dichlorodihydrofluorescein diacetate by centrifugation at 1000 rpm for 5 min. The measurements were conducted using a Cytomics FC500 Beckman Coulter flow cytometer (FL1 channel for DCF).

K562 cells [5] = assay: Cell cycle analysis (propidium iodide, flow cytometry); format: cell-based; details: 48 h
Experimental: Tumor cells were seeded on a 6-well plate at a density of 400,000 per well for K562. Test compounds 5, 14 and 15 were added at concentrations of 1, 5 and 10 μM in duplicate for 48 h. The methodology and analysis of the obtained data were performed as described in our prior work.
As shown above, compounds 5, 14 and 15 had significant antiproliferative activities, which is why their influences on the cell cycle and apoptosis level were determined, with the aim of understanding whether these effects are cytostatic or cytotoxic. In the cell cycle experiments, K562 cells were used. […] For the determination of changes in the distribution of cells in the phases of the cell cycle, the widely employed method of staining the cells with propidium iodide was used.

[6] = system: HepG2 (human liver cancer); assay: MTT cell proliferation assay, HepG2; format: cell-based; details: Homo sapiens, HepG2, 72 h, HepG2, 72 h of exposition, read-out: Anti-proliferative activity IC50, HepG2
Experimental: as §1, §2

[7] = system: HL-60 (promyelocytic leukemia); assay: MTT cell proliferation assay, HL-60; format: cell-based; details: Homo sapiens, HL-60, 72 h of exposition, read-out: Anti-proliferative activity IC50, HL-60
Experimental: as §1, §2

[8] = system: OKP-GS (renal cell carcinoma); assay: MTT cell proliferation assay, OKP-GS; format: cell-based; details: 72 h of exposition, read-out: Anti-proliferative activity IC50, OKP-GS
Experimental: as §1, §2

PDGFRβ = molecular target: T1, PDGFRβ (Homo sapiens, UniProt P09619); assay: ADP-Glo kinase assay, PDGFRβ; format: biochemical
T1 construct: purchased Promega
T1 sequence (P09619 33-1106): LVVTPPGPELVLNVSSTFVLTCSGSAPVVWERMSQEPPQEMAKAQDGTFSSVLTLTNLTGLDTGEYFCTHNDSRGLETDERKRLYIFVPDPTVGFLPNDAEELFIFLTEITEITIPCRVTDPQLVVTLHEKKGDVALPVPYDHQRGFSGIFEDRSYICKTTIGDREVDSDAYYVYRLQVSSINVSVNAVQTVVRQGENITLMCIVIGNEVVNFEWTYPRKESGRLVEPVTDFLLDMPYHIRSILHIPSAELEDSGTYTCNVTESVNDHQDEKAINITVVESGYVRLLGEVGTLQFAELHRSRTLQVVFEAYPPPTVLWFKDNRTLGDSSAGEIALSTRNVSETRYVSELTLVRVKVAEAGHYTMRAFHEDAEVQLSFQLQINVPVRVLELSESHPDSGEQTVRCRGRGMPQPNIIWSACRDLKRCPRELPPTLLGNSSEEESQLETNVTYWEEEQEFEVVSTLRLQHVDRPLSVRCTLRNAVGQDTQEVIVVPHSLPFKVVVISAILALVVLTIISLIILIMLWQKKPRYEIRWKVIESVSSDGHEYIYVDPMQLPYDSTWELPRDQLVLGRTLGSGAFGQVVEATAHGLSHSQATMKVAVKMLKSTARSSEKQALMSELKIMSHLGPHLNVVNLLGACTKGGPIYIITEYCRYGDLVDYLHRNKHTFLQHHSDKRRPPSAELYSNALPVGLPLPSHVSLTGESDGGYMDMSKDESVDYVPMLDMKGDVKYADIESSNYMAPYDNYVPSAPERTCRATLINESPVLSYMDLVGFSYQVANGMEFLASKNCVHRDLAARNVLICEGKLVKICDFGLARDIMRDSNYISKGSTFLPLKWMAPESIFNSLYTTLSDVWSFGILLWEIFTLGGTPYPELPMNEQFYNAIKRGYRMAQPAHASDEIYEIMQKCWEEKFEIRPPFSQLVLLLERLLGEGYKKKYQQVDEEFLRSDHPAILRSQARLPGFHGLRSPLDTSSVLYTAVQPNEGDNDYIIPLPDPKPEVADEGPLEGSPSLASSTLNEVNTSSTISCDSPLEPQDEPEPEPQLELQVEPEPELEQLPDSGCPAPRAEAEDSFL
Experimental: (§3) The ADP-Glo kinase assay (Promega, Madison, WI, USA) was used to screen compounds 5, 8–10, 14, 17, 19 and 24 for the tyrosine kinase (Kinase Selectivity Profiling System TK-1, Promega, Madison, WI, USA) and serine/threonine kinase (Kinase Selectivity Profiling System Other/CK-1, Promega, Madison, WI, USA) inhibition effects according to the manufacturer’s technical manual. The luminescence data were analyzed as described in our prior work.
(§4) The selectivity of the potential kinase inhibitor against a specific protein kinase or a specific family of kinases was investigated using the Kinase Selectivity Profiling System TK-1, Other/CK-1 and ADP-Glo™ Kinase assay kit (Promega, Madison, WI, USA).

PDGFRα = molecular target: T2, PDGFRα (Homo sapiens, UniProt P16234); assay: ADP-Glo kinase assay, PDGFRα; format: biochemical
T2 construct: purchased Promega
T2 sequence (P16234 24-1089): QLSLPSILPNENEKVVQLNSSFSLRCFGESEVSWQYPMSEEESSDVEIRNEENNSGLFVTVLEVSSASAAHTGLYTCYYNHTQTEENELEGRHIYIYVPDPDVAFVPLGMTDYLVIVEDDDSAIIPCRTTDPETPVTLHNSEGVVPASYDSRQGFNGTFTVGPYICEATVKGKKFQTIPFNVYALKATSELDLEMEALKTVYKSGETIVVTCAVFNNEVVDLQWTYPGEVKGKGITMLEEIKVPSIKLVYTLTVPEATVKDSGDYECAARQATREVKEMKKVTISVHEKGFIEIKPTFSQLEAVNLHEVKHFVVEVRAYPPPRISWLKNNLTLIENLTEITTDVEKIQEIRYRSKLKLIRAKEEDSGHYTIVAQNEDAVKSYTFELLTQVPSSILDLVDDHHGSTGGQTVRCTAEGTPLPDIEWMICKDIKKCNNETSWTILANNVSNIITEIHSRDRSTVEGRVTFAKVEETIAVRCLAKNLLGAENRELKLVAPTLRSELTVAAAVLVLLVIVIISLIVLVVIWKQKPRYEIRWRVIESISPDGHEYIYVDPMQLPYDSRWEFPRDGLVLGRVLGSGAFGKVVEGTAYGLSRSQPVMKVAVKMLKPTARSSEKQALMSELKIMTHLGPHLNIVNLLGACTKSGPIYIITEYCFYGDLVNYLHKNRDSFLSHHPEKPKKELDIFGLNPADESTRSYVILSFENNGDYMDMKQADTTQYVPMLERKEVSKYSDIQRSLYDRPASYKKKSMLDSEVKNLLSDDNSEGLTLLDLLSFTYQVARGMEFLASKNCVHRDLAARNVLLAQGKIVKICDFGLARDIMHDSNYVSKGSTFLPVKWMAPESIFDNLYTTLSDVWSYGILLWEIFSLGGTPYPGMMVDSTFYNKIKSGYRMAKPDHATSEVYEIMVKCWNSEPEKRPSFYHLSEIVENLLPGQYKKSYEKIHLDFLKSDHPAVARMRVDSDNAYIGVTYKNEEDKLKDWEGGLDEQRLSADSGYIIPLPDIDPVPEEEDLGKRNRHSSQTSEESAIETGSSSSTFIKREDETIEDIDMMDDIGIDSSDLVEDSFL
Experimental: as §3, §4

Row | Structure (SMILES) | melting point | IC50 [1] | IC50 [2] | IC50 (A549 (lung carcinoma)) | IC50 [4] | IC50 [6] | IC50 [7] | IC50 [8] | further results
1 | COc1ccc(C(=O)N2CCN(C(=O)c3cccc(C(=O)Nc4cc(-n5cnc(C)c5)cc(C(F)(F)F)c4)c3)CC2)cc1 [Compound 13, 3-(4-(4-Methoxybenzoyl)piperazine-1-carbonyl)-N-(3-(4-methyl-1H-imidazol-1-yl)-5-(trifluoromethyl)-phenyl)benzamide] | 144 to 146 °C |  |  |  |  |  |  |  | 
2 | Cc1cn(-c2cc(NC(=O)c3cccc(C(=O)N4CCN(C(=O)c5cccc(F)c5)CC4)c3)cc(C(F)(F)F)c2)cn1 [Compound 15, 3-(4-(3-Fluorobenzoyl)piperazine-1-carbonyl)-N-(3-(4-methyl-1H-imidazol-1-yl)-5-(trifluoromethyl)phenyl)-benzamide] | 130 to 135 °C | 10.5 ± 2.54 µM | 29.4 ± 1.79 µM | > 50 µM | 27.38 ± 0.26 µM | 45.8 ± 1.76 µM | 34.8 ± 4.7 µM | > 50 µM | normal live cells (living cells) (K562 cells [3]; K562, 1 µM): 74.91%; normal live cells (living cells) (K562 cells [3]; K562, 5 µM): 68.41%; normal live cells (living cells) (K562 cells [3]; K562, 10 µM): 60.97%; ROS Level, % of Control (K562 cell line; K562, 5 µM): 92.89 % of Control; ROS Level, % of Control (K562 cell line; K562, 10 µM): 87.87 % of Control; ROS Level, % of Control (K562 cell line; K562, 20 µM): 94.07 % of Control; Apoptosis, % (cell cycle analysis) (K562 cells [5]; K562, 1 µM): 17.90%; G1, % (K562 cells [5]; K562, 1 µM): 30.15%; G2/M, % (K562 cells [5]; K562, 1 µM): 48.54%; S, % (K562 cells [5]; K562, 1 µM): 21.31%; Apoptosis, % (cell cycle analysis) (K562 cells [5]; K562, 5 µM): 20.54%; G1, % (K562 cells [5]; K562, 5 µM): 34.76%; G2/M, % (K562 cells [5]; K562, 5 µM): 53.65%; S, % (K562 cells [5]; K562, 5 µM): 11.59%; Apoptosis, % (cell cycle analysis) (K562 cells [5]; K562, 10 µM): 32.72%; G1, % (K562 cells [5]; K562, 10 µM): 28.85%; G2/M, % (K562 cells [5]; K562, 10 µM): 62.99%; S, % (K562 cells [5]; K562, 10 µM): 8.16%
3 | CNC(=O)c1cc(Oc2ccc(NC(=O)Nc3ccc(Cl)c(C(F)(F)F)c3)cc2)ccn1 [Sorafenib, reference compound] |  | 2.44 ± 0.21 µM | 3.48 ± 0.39 µM | 12.5 ± 1.64 µM | 8.62 ± 2.24 µM | 5.01 ± 0.14 µM | 3.37 ± 0.42 µM | 7.17 ± 0.5 µM | normal live cells (living cells) (K562 cells [3]; K562, 1 µM): 84.11%; early apoptotic cells (K562 cells [3]; K562, 5 µM): 36.2%; late apoptotic cells (K562 cells [3]; K562, 5 µM): 19.57%; normal live cells (living cells) (K562 cells [3]; K562, 5 µM): 42.32%; necrotic cells (K562 cells [3]; K562, 10 µM): 5.73%; normal live cells (living cells) (K562 cells [3]; K562, 10 µM): 26.41%; ROS Level, % of Control (K562 cell line; K562, 5 µM): 69.20 % of Control; ROS Level, % of Control (K562 cell line; K562, 10 µM): 79.03 % of Control; ROS Level, % of Control (K562 cell line; K562, 20 µM): 71.59 % of Control; inhibition at 10 µM (PDGFRβ): 100%; Apoptosis, % (cell cycle analysis) (K562 cells [5]; K562, 1 µM): 22.60%; G1, % (K562 cells [5]; K562, 1 µM): 36.50%; S, % (K562 cells [5]; K562, 1 µM): 7.72%; Apoptosis, % (cell cycle analysis) (K562 cells [5]; K562, 5 µM): 44.20%; G1, % (K562 cells [5]; K562, 5 µM): 33.87%; S, % (K562 cells [5]; K562, 5 µM): 30.14%; inhibition at 10 µM (PDGFRα): 100%
4 | COc1ccc(C(=O)N2CCN(C(=O)c3cccc(C(=O)Nc4cccc(C(F)(F)F)c4)c3)CC2)cc1 [Compound 7, 3-(4-(4-Methoxybenzoyl)piperazine-1-carbonyl)-N-(3-(trifluoromethyl)phenyl)benzamide] | 72 to 74 °C |  |  |  |  |  |  |  | 
5 | COc1ccc(C(=O)N2CCN(C(=O)c3ccc(C(=O)Nc4cc(-n5cnc(C)c5)cc(C(F)(F)F)c4)cc3)CC2)cc1 [Compound 25, 4-(4-(4-methoxybenzoyl)piperazine-1-carbonyl)-N-(3-(4-methyl-1H-imidazol-1-yl)-5-(trifluoromethyl)-phenyl)benzamide] | 212 to 214 °C |  |  |  |  |  |  |  | 
6 | Cc1cn(-c2cc(NC(=O)c3ccc(C(=O)N4CCN(C(=O)c5cccc(F)c5)CC4)cc3)cc(C(F)(F)F)c2)cn1 [Compound 27, 4-(4-(3-fluorobenzoyl)piperazine-1-carbonyl)-N-(3-(4-methyl-1H-imidazol-1-yl)-5-(trifluoromethyl)phenyl)-benzamide] | 110 to 113 °C | 22.2 ± 2.12 µM | 24.08 ± 0.07 µM | > 50 µM | 49.4 ± 0.67 µM | 38.6 ± 1.11 µM | 26 ± 4.15 µM | > 50 µM | 
7 | Cc1cn(-c2cc(NC(=O)c3ccc(C(=O)Nc4cc(-n5cnc(C)c5)cc(C(F)(F)F)c4)cc3)cc(C(F)(F)F)c2)cn1 [Compound 22, N1,N4-bis(3-(4-methyl-1H-imidazol-1-yl)-5-(trifluoromethyl)phenyl)terephthalamide] | 295 to 296 °C | > 50 µM | > 50 µM | > 50 µM | > 50 µM | > 50 µM | > 50 µM | > 50 µM | 
8 | O=C(Nc1cccc(C(F)(F)F)c1)c1ccc(C(=O)N2CCN(C(=O)c3ccccc3F)CC2)cc1 [Compound 20, 4-(4-(2-Fluorobenzoyl)piperazine-1-carbonyl)-N-(3-(trifluoromethyl)phenyl)benzamide] | 215 to 217 °C | > 50 µM | > 50 µM | > 50 µM | > 50 µM | > 50 µM | > 50 µM | > 50 µM | 
9 | Cc1cn(-c2cc(NC(=O)c3ccc(C(=O)N4CCN(C(=O)c5ccccc5F)CC4)cc3)cc(C(F)(F)F)c2)cn1 [Compound 26, 4-(4-(2-fluorobenzoyl)piperazine-1-carbonyl)-N-(3-(4-methyl-1H-imidazol-1-yl)-5-(trifluoromethyl)phenyl)-benzamide] | 142 to 145 °C | 18.5 ± 0.73 µM | 23.97 ± 0.03 µM | > 50 µM | 48.8 ± 1.17 µM | 44.3 ± 4.79 µM | 26.4 ± 1.73 µM | > 50 µM | 
10 | O=C(Nc1cccc(C(F)(F)F)c1)c1ccc(C(=O)N2CCN(C(=O)c3cccc(F)c3)CC2)cc1 [Compound 21, 4-(4-(3-Fluorobenzoyl)piperazine-1-carbonyl)-N-(3-(trifluoromethyl)phenyl)benzamide] |  | > 50 µM | > 50 µM | > 50 µM | > 50 µM | > 50 µM | > 50 µM | > 50 µM | 
11 | CNC(=O)c1cc(Oc2ccc(NC(=O)c3ccc(C(=O)Nc4cccc(C(F)(F)F)c4)cc3)cc2)ccn1 [Compound 18, N1-(4-((2-(methylcarbamoyl)pyridin-4-yl)oxy)phenyl)-N4-(3-(trifluoromethyl)phenyl)terephthalamide] |  | 26.9 µM | 46 ± 1.76 µM | > 50 µM | > 50 µM | 45.9 ± 1.83 µM | > 50 µM | 34.4 ± 2.52 µM | 
12 | CNC(=O)c1cc(Oc2ccc(NC(=O)c3ccc(C(=O)Nc4cc(-n5cnc(C)c5)cc(C(F)(F)F)c4)cc3)cc2)ccn1 [Compound 23, N1-(3-(4-methyl-1H-imidazol-1-yl)-5-(trifluoromethyl)phenyl)-N4-(4-((2-(methylcarbamoyl)pyridin-4-yl)oxy)phenyl)terephthalamide] | 299 to 300 °C |  |  |  |  |  |  |  | 
